Measurements from article PMC4836387 (ACS Chemical Biology, 2016).

Legend:
[1] = tested on: HIV-1 vector carrying IN mutant H51Y; test: single-round HIV-1 infectivity assay, H51Y IN; format: cell-based; settings: for EC50: Human immunodeficiency virus 1, read-out: EC50 H51Y; for Fold-change (FC) in EC50 relative to WT, H51Y: in parentheses
[2] = tested on: HIV-1 vector carrying IN mutant E92Q; test: single-round HIV-1 infectivity assay, E92Q IN; format: cell-based; settings: for EC50: Human immunodeficiency virus 1, read-out: EC50 E92Q; for Fold-change (FC) in EC50 relative to WT, E92Q: in parentheses
[3] = tested on: HIV-1 vector carrying IN mutant H51Y/R263K; test: single-round HIV-1 infectivity assay, H51Y/R263K IN; format: cell-based; settings: for EC50: Human immunodeficiency virus 1, read-out: EC50 H51Y/R263K; for Fold-change (FC) in EC50 relative to WT, H51Y/R263K: in parentheses
[4] = tested on: HIV-1 vector carrying IN mutant T66I; test: single-round HIV-1 infectivity assay, T66I IN; format: cell-based; settings: for EC50: Human immunodeficiency virus 1, read-out: EC50 T66I; for Fold-change (FC) in EC50 relative to WT, T66I: in parentheses
[5] = tested on: HIV-1 vector carrying IN mutant N155H; test: single-round HIV-1 infectivity assay, N155H IN; format: cell-based; settings: for EC50: Human immunodeficiency virus 1, read-out: EC50 N155H; for Fold-change (FC) in EC50 relative to WT, N155H: in parentheses
[6] = tested on: lentiviral vector carrying WT IN; test: single-round HIV-1 infectivity assay, WT IN; format: cell-based; settings: Human immunodeficiency virus 1, read-out: EC50 (WT IN)
[7] = tested on: HIV-1 vector carrying IN mutant G140S/Q148H; test: single-round HIV-1 infectivity assay, G140S/Q148H IN; format: cell-based; settings: for Fold-change (FC) in EC50 relative to WT, G140S/Q148H: in parentheses
[8] = tested on: HIV-1 vector carrying IN mutant R263K; test: single-round HIV-1 infectivity assay, R263K IN; format: cell-based; settings: for EC50: Human immunodeficiency virus 1, read-out: EC50 R263K; for Fold-change (FC) in EC50 relative to WT, R263K: in parentheses
[9] = tested on: HIV-1 vector carrying IN mutant Y143R; test: single-round HIV-1 infectivity assay, Y143R IN; format: cell-based; settings: for EC50: Human immunodeficiency virus 1, read-out: EC50 Y143R; for Fold-change (FC) in EC50 relative to WT, Y143R: in parentheses
[10] = in vitro; settings: human
[11] = tested on: HIV-1 vector carrying IN mutant G118R; test: single-round HIV-1 infectivity assay, G118R IN; format: cell-based; settings: for EC50: Human immunodeficiency virus 1, read-out: EC50 G118R; for Fold-change (FC) in EC50 relative to WT, G118R: in parentheses
[12] = molecular target: HIV-1 IN (Human immunodeficiency virus type 1 group M subtype B, UniProt P12497); test: in vitro IN assay, strand transfer; format: biochemical; settings: in vitro ST inhibitory IC50, text values

Row | Compound | EC50 [1] | EC50 [2] | EC50 [3] | EC50 [4] | EC50 [5] | Fold-change (FC) in EC50 relative to WT, N155H [5] | EC50 [6] | Fold-change (FC) in EC50 relative to WT, H51Y [1] | Fold-change (FC) in EC50 relative to WT, E92Q [2] | Fold-change (FC) in EC50 relative to WT, H51Y/R263K [3] | Fold-change (FC) in EC50 relative to WT, G140S/Q148H [7] | Fold-change (FC) in EC50 relative to WT, T66I [4] | EC50 [8] | Fold-change (FC) in EC50 relative to WT, R263K [8] | EC50 [9] | Fold-change (FC) in EC50 relative to WT, Y143R [9] | CC50 [10] | EC50 [11] | Fold-change (FC) in EC50 relative to WT, G118R [11] | further results
1 | Cc1nnc(C(=O)NC(C)(C)c2nc(C(=O)NCc3ccc(F)cc3)c(O)c(=O)n2C)o1 [compound 1, raltegravir, reference compound] | 3.4 ± 0.2 nM | 30 ± 10 nM | 6 ± 2.3 nM | 2.8 ± 0.4 nM |  |  |  |  |  |  |  |  |  |  |  |  |  |  |  | 
2 | C[C@@H]1CCO[C@H]2Cn3cc(C(=O)NCc4ccc(F)cc4F)c(=O)c(O)c3C(=O)N12 [compound 3, dolutegravir, reference compound] | 3.2 ± 0.2 nM | 2.3 ± 0.4 nM | 16 ± 2 nM | 0.9 ± 0.8 nM |  |  |  |  |  |  |  |  |  |  |  |  |  |  |  | 
3 | Nc1c(C(=O)NCc2ccc(F)cc2F)c(=O)n(O)c2ncc(CCCCCCO)cc12 [4d] | 1.6 ± 0.1 nM | 0.74 ± 0.13 nM | 5.2 ± 1.6 nM | 0.5 ± 0.35 nM | 2.7 ± 1 nM | 1.2 | 2.3 ± 0.6 nM | 0.70 | 0.32 | 2.3 | 4.1 | 0.22 | 8.4 ± 2.3 nM | 3.7 | 2.1 ± 1.4 nM | 0.91 | > 250000 nM | 6.4 ± 2.5 nM | 2.8 | 
4 | Nc1c(C(=O)NCc2ccc(F)cc2F)c(=O)n(O)c2ncc(CCCO)cc12 [4b] | 2.6 ± 0.5 nM | 4.8 ± 2 nM | 15 ± 2 nM | 1.1 ± 0.1 nM | 8.5 ± 3.1 nM | 2.7 | 3.1 ± 2 nM | 0.84 | 1.5 | 4.8 | 4.3 | 0.35 | 2.5 ± 0.8 nM | 0.81 | 2.8 ± 0.9 nM | 0.90 | > 250000 nM | 10 ± 1.6 nM | 3.2 | IC50 [12]: 11 nM
5 | Nc1c(C(=O)NCc2ccc(F)cc2F)c(=O)n(O)c2ncc(CCCCCCCCO)cc12 [4e] | 4.8 ± 1.1 nM | 2.6 ± 0.2 nM | 22 ± 8 nM | 1.7 ± 0.5 nM | 6.5 ± 2.7 nM | 1.8 | 3.7 ± 0.4 nM | 1.3 | 0.70 | 5.9 | 2.1 | 0.46 | 3.8 ± 1.1 nM | 1.0 | 3.2 ± 0.8 nM | 0.86 | > 250000 nM | 11 ± 1 nM | 3.0 | IC50 [12]: 5 nM
6 | Nc1c(C(=O)NCc2ccc(F)cc2F)c(=O)n(O)c2ncc(CCS(=O)(=O)c3ccccc3)cc12 [4f] | 0.8 ± 0.5 nM | 1.2 ± 0.6 nM | 5.3 ± 0.4 nM | 0.7 ± 0.1 nM | 2.1 ± 1.2 nM | 1 | 2 ± 0.1 nM | 0.4 | 0.6 | 2 | 3 | 0.3 | 5.3 ± 0.8 nM | 2 | 0.6 ± 0.1 nM | 0.3 | > 250000 nM | 11.4 ± 3.5 nM | 6 | 
7 | COc1cc2c(cc1Cc1cccc(Cl)c1F)c(=O)c(C(=O)O)cn2[C@H](CO)C(C)C [compound 2, elvitegravir, reference compound] | 4.5 ± 2.1 nM | 154 ± 34 nM | 53 ± 18 nM | 66 ± 1 nM | 90 ± 18 nM | 14 | 6.4 ± 0.8 nM | 0.7 | 24 | 8 | 891 | 10 | 10 ± 6 nM | 1.6 | 7.9 ± 2.3 nM | 1.2 | > 250000 nM | 21 ± 10 nM | 3.3 | 
8 | Nc1c(C(=O)NCc2ccc(F)cc2F)c(=O)n(O)c2ncc(CCCCCO)cc12 [4c] | 3.8 ± 0.6 nM | 3.8 ± 2.3 nM | 2.6 ± 1.4 nM | 0.93 ± 0.24 nM | 2.4 ± 0.8 nM | 1.8 | 1.3 ± 0.2 nM | 2.9 |  | 2.0 | 5.3 | 0.72 | 2.6 ± 0.1 nM | 2.0 | 3 ± 0.5 nM | 2.3 | > 250000 nM | 5.3 ± 1.6 nM | 4.1 | EC50 ([7]; read-out: EC50 G140S/Q148H, viral vector carrying IN mutations G140S/Q148H): 6.9 ± 2.3 nM
